Like-named read-outs stand apart in the source and are kept apart here.
Experiments:
[1] = Pharmacokinetics study of (+)/(−) epicatechin and their trigonelline (1:1) co-crystals, oral (Example 3); type: in vivo; details: rat, 10 mg/kg, male SD rats, 10 mpk equivalent of parent drug, vehicle CMC and Tween 80, plasma; for half-life: read-out: T½ elimination (converted)
Protocol: (§1) Co-crystals of the present invention were administered orally (PO) at a dose of 10 mpk equivalent of parent drugs in male SD rats. The PK results of the compound were compared with exposure of parent drugs. […] Blood samples were centrifuged at 10,000 rpm for 5 min. at 4° C. to obtain the plasma, which were aspirated into separate labelled tubes and stored at −80° C. Extraction solvent was added to plasma, was vortexed and shaken on shaker for 10 minutes, centrifuged at 10,000 rpm for 10 minutes at 4° C. Supernatant was kept for analysis.

[2] = Pharmacokinetics study of (+) epicatechin (SPR590) and its trigonelline (1:1) co-crystal (SPR515), oral (Example 4); type: in vivo; details: rat, plasma, male SD rats, CMC and Tween 80
Protocol: as §1, with “mpk” for “mpk equivalent of parent drugs”, “rats for the control (+) epicatechin group and 10 mpk of SPR 515 which is equivalent to 6.25 mpk of epicatechin.” for “rats.”

[3] = average; male SD rats, PO, 14 mpk of Compound 109 (equivalent to 10 mpk epicatechin), vehicle 0.5% CMC
Protocol: A pharmacokinetics study was carried out to evaluate the plasma exposure of D-proline co-crystals of (+) epicatechin (Compound 109). Co-crystals were administered orally (PO) at a dose of 14 mpk of Compound 109, which is equivalent to 10 mpk of epicatechin. The dosing vehicle that was used in this study was 0.5% CMC. After oral dosing, blood was collected by serial bleeding at different time points in heparinised tubes. Blood samples were centrifuged at 10,000 rpm for 5 min. at 4° C. to obtain the plasma, which were aspirated into separate labelled tubes and stored at −80° C. Extraction solvent was added to plasma, was vortexed and shaken on a shaker for 10 minutes, and then centrifuged at 10,000 rpm for 10 minutes at 4° C. Supernatant was kept for analysis. Acetonitrile and plasma calibration curves were generated and percentage of drug recovery from plasma determined. Quantitative analysis was done by liquid chromatography tandem mass spectrometer (API3000 LC-MS/MS). PK parameters were calculated using Graph Pad PRISM version 5.04 and the results are depicted in Table 7.

[4] = PO, dose 10 mpk (MW adjusted (+)-epicatechin dose: SPR590 10 mpk, SPR515 6.25 mpk)

Row | AUC [1] [µM·h] | Cmax [1] [nM] | Tmax [1] [min] | half-life [1] [min] | AUC [2, 4] [µM·h] | Cmax [2, 4] [nM] | concentration at 0.16 h ([2]; time point 0.16 h, PO 10 mpk (SPR515: equivalent to 6.25 mpk epicatechin), read-out: Plasma level) [nM] | concentration at 0.5 h ([2]; time point 0.5 h, PO 10 mpk (SPR515: equivalent to 6.25 mpk epicatechin), read-out: Plasma level) [nM] | concentration at 1 h ([2]; time point 1 h, PO 10 mpk (SPR515: equivalent to 6.25 mpk epicatechin), read-out: Plasma level) [nM] | concentration at 2 h ([2]; time point 2 h, PO 10 mpk (SPR515: equivalent to 6.25 mpk epicatechin), read-out: Plasma level) [nM] | concentration at 4 h ([2]; time point 4 h, PO 10 mpk (SPR515: equivalent to 6.25 mpk epicatechin), read-out: Plasma level) [nM] | concentration at 8 h ([2]; time point 8 h, PO 10 mpk (SPR515: equivalent to 6.25 mpk epicatechin), read-out: Plasma level) [nM] | AUC [3] [µM·h] | Cmax [3] [nM] | Tmax [3] [min] | T½ elimination [3] [min] | SMILES
1 | 0.678 | 386 | 18 | 113 |  |  |  |  |  |  |  |  |  |  |  |  | Oc1cc(O)c2c(c1)O[C@H](c1ccc(O)c(O)c1)[C@H](O)C2 [Compound 107, (−) epicatechin]
2 | 0.579 | 333 | 60 | 49.8 | 0.678 | 386 | 236 | 338 | 262 | 152 | 24.1 | 0 |  |  |  |  | Oc1cc(O)c2c(c1)O[C@@H](c1ccc(O)c(O)c1)[C@@H](O)C2 [Compound 108, (+) epicatechin]
3 |  |  |  |  |  |  |  |  |  |  |  |  | 1.90533 | 778 | 45 | 103 | O=C(O)[C@H]1CCCN1.Oc1cc(O)c2c(c1)O[C@@H](c1ccc(O)c(O)c1)[C@@H](O)C2 [Compound 109, (+) Epicatechin_(D)-Proline (1:1) Co-Crystals]

Reference: patent US20210380535A1, “CO-CRYSTALS COMPRISING EPICATECHIN AND A CARBOXY-N-HETEROCYCLIC CO-CRYSTAL FORMER” (Epirium Bio Inc., priority 2018, published 2021)
